Common to all, as to assay: biochemical
Common to all, as to parameters: DiscoveRx KINOMEscan active site-directed competition binding; percent of control kinase bound to immobilised ligand

In assay [1] the target is T1, EPHB4 (Homo sapiens, UniProt P54760).
T1 sequence (P54760 1-987): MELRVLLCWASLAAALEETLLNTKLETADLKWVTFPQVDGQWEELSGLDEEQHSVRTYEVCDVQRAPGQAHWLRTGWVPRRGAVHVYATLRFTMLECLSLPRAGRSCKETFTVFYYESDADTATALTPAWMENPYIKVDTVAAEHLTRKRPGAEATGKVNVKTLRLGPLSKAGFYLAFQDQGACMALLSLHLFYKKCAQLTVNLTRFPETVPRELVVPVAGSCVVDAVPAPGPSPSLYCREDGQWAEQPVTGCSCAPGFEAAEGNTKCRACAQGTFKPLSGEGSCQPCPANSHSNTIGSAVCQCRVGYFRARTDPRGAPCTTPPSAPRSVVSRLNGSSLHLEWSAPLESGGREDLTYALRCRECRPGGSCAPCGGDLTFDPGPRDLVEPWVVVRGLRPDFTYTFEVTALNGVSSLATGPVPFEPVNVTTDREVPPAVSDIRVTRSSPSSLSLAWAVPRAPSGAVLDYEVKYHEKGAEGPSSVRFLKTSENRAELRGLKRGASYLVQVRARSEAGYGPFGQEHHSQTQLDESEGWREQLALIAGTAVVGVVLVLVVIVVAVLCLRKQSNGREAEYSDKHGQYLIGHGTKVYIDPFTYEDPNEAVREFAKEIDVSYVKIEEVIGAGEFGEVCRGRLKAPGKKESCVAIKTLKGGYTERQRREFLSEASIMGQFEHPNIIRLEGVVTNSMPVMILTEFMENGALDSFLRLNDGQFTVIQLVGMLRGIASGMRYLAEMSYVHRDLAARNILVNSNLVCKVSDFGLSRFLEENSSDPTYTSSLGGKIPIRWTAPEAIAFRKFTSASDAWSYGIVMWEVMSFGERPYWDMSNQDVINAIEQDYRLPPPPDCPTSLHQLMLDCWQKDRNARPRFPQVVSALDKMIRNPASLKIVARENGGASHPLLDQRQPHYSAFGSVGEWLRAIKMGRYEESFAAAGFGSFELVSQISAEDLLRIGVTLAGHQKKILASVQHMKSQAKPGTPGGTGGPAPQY

Assay [2] addresses T2, ULK3 (Homo sapiens, UniProt Q6PHR2).
T2 sequence (Q6PHR2 1-472): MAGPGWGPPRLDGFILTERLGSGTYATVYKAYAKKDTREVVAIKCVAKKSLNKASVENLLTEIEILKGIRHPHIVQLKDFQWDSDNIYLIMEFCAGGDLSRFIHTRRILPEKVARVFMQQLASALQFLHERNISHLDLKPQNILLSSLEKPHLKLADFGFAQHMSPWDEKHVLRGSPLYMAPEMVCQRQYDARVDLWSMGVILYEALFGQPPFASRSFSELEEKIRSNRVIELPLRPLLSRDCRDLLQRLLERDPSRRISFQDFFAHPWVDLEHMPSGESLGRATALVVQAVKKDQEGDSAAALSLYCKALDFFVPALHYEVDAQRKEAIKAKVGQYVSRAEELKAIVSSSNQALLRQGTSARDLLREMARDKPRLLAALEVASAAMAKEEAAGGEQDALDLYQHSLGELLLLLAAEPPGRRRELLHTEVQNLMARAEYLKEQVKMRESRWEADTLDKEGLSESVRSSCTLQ

Assay [3] deals with T3, IKK-beta (Homo sapiens, UniProt O14920).
T3 construct: gene IKBKB
T3 sequence (O14920 1-756): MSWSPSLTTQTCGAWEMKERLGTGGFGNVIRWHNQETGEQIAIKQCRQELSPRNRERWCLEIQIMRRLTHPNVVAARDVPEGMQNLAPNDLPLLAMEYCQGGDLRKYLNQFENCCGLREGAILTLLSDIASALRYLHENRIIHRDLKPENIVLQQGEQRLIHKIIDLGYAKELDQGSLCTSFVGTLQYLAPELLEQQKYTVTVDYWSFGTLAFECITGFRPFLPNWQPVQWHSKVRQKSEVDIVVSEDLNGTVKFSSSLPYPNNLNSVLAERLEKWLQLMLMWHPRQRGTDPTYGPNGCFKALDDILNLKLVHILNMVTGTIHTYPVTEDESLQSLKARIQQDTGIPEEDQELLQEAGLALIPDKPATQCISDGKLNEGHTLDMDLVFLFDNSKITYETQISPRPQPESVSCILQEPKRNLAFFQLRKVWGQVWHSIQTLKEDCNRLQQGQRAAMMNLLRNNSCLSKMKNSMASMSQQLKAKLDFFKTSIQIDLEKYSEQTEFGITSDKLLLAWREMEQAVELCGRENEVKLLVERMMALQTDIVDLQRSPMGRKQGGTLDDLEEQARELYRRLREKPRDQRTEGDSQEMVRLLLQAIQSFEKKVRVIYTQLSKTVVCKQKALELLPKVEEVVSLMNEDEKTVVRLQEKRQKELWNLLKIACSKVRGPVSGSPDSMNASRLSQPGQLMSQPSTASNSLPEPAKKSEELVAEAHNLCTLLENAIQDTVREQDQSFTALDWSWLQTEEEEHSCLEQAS

For assay [4], the target named is T4, GRK1 (Homo sapiens, UniProt Q15835).
T4 sequence (Q15835 1-563): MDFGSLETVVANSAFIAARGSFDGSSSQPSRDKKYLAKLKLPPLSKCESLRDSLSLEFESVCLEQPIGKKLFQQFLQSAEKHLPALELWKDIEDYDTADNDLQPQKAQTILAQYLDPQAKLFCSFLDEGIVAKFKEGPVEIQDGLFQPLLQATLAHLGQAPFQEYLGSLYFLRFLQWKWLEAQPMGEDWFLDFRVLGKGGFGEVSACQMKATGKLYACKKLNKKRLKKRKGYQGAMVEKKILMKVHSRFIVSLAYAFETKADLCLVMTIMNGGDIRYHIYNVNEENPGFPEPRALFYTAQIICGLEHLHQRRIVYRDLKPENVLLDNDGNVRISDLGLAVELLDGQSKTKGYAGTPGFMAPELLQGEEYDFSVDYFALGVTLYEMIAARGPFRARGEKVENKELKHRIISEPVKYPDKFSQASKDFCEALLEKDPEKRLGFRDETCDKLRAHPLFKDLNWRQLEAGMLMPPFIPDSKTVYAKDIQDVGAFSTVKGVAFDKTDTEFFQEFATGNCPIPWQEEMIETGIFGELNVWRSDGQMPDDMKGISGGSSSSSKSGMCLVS

The mark [5] stands for this setting: read-out: Niraparib (MK-4827) / %Ctrl @ 10000nM.
[6] abbreviates: read-out: Olaparib / %Ctrl @ 10000nM.
The mark [7] stands for this setting: read-out: Rucaparib / %Ctrl @ 10000nM, binding competition, % of control.
Setting [8] is: read-out: Talazoparib (BMN 673) / %Ctrl @ 10000nM.

The record followed here is paper PMC7026418, “The kinase polypharmacology landscape of clinical PARP inhibitors” (Scientific Reports, 2020).

Molecules are shown by their SMILES. Like-named read-outs stand apart in the source and are kept apart here.

With `NC(=O)c1cccc2cn(-c3ccc([C@@H]4CCCNC4)cc3)nc12` [Niraparib], the percent of control binding at 10 µM in assay [1] (setting [5]) came out at 91%; in assay [2] (setting [5]), 100%; in assay [3] (setting [5]), 100%; in assay [4] (setting [5]), 95%.
`O=C(c1cc(Cc2n[nH]c(=O)c3ccccc23)ccc1F)N1CCN(C(=O)C2CC2)CC1` [Olaparib]: the percent of control binding at 10 µM in assay [1] (setting [6]) was found to be 90%; in assay [2] (setting [6]) it was 80%; in assay [3] (setting [6]) it was 72%; in assay [4] (setting [6]), 91%.
With `CNCc1ccc(-c2[nH]c3cc(F)cc4c3c2CCNC4=O)cc1` [Rucaparib], the percent of control binding at 10 µM was found to be 95% in assay [1] (setting [7]), 70% in assay [2] (setting [7]), 35% in assay [3] (setting [7]) and 64% in assay [4] (setting [7]).
On to `Cn1ncnc1[C@H]1c2n[nH]c(=O)c3cc(F)cc(c23)N[C@@H]1c1ccc(F)cc1` [Talazoparib], for which the percent of control binding at 10 µM came out at 100% in assay [1] (setting [8]), 84% in assay [2] (setting [8]), 95% in assay [3] (setting [8]) and 100% in assay [4] (setting [8]).
